Read-outs that look alike come from different tables or passages of the source.
Assays:
[1] = Pharmacokinetics in C57 mice; conditions: C57, mouse, in vivo
Procedure: After subcutaneous or intravenous administration to C57 mice, plasma is collected and the drug concentration in plasma is determined to illustrate the in vivo pharmacokinetic properties of the compound according to the present invention. […] 20.0 μL of thawed plasma sample is taken. 20 μL of 50% aqueous methanol solution (containing 100 ng mL^−1 internal standard) and 60 μL of acetonitrile are added sequentially to precipitate protein. The mixture is vortexed for 5 minutes, and centrifuged at 3700 rpm for 8 minutes. 50.0 μL of the supernatant is taken, into which 50.0 μL of 0.5% aqueous formic acid solution is added. The mixture is vortexed for 5 minutes. 50 μL of the mixture solution is sampled and injected into the LC-MS/MS to determine the drug concentration in plasma.

[2] = Pharmacokinetics following single administration in SD rat; parameters: species or system SD rats; conditions: male, SD, in vivo, sc, 50 nmol/kg
Procedure: The compound is administrated to male SD rats (230-268 g, n=3) at a dose of 50.0 nmol/kg (s.c.) or 25.0 nmol/kg (i.v.). […] 30.0 μL of thawed plasma sample is taken. 150 μL of acetonitrile solution (containing 5 ng mL^−1 Verapamil, 50 ng·mL^−1 Glibenclamide, 200 ng·mL^−1 Tolbutamide and 200 ng·mL^−1 Diclofenac) are added to precipitate protein. The mixture is vortexed for 5 minutes, and centrifuged at 3700 rpm for 8 minutes. 70.0 μL of the supernatant is taken, into which 70.0 μL of 0.5% aqueous formic acid solution is added. The mixture is vortexed for 5 minutes. 15 μL of the mixture solution is sampled and injected into the LC-MS/MS to determine the drug concentration in plasma. 20.0 μL of thawed plasma sample is taken. 60 μL of acetonitrile solution (containing 5 ng mL^−1 Verapamil, 50 ng·mL^−1 Glibenclamide, 200 ng·mL^−1 Tolbutamide and 200 ng·mL^−1 Diclofenac) are added to precipitate protein. […] The mixture is vortexed for 10 minutes. 10.0 μL of the mixture solution is sampled and injected into the LC-MS/MS to determine the drug concentration in plasma. 30.0 μL of thawed plasma sample is taken. 150 μL of acetonitrile solution (containing 5 ng mL^−1 Verapamil, 50 ng mL^−1 Glibenclamide, 200 ng·mL^−1 Tolbutamide and 200 ng·mL^−1 Diclofenac) are added to precipitate protein. The mixture is vortexed for 5 minutes, and centrifuged at 3700 rpm for 8 minutes. 70.0 μL of the supernatant is taken, into which 70.0 μL of 0.5% aqueous formic acid solution is added. The mixture is vortexed for 5 minutes. 10.0 μL of the mixture solution is sampled and injected into the LC-MS/MS to determine the drug concentration in plasma.

[3] = Pharmacokinetics in cynomolgus monkeys; conditions: cynomolgus monkey, in vivo
Procedure: After subcutaneous or intravenous administration to cynomolgus monkeys, plasma is collected and the drug concentration in plasma is determined to illustrate the in vivo pharmacokinetic properties of the compound according to the present invention. The compound is dissolved in 1.4% PG in 8 mM Na2HPO4 Buffer (pH 7.39), and filtered through a filter membrane (PTFE, 0.45 μm) to obtain 25 and 12.5 nmol/mL solution of the compound respectively. The obtained solutions are administered to cynomolgus monkeys (4-8 kg) at a dose of 25 nmol/kg subcutaneously (s.c.) or 12.5 nmol/kg intravenously (i.v.). […] The blood samples are centrifuged at 2200 g for 10 minutes to obtain a plasma, which is stored at −90° C. to −60° C. for further analysis and assay.
70.0 μL of thawed plasma sample is taken. 70 μL of acetonitrile (containing 1 ng/ml of the internal standard) is added to precipitate protein. The mixture is vortexed for 1 minute, and centrifuged at 14000 rpm for 10 minutes. 60.0 μL of the supernatant is taken, into which 60.0 μL of 0.5% aqueous formic acid solution is added. The mixture is vortexed for 5 minutes. 10 μL of the mixture solution is sampled and injected into the LC-MS/MS to determine the drug concentration in plasma.
Based on the drug concentration in plasma of the compounds in the cynomolgus monkeys, the pharmacokinetic parameters are calculated by applying the software Winnolin 8.2 in a non-compartmental model, and the results are shown in Table 9 and Table 10 below.

[4] = in vivo
[5] = assay type: in vivo; conditions: rat, in vivo, male SD rats
Procedure: (§1) 77 SD male rats (SPF grade) are selected and randomly divided into 10 groups based on body weight. Group 1 is the vehicle control group, including 5 animals. […] Group 5 to Group 7 are the groups administrated with the test substance 1; and Group 8 to Group 10 are the groups administrated with the test substance 2, each group including 8 animals, wherein 5 animals for primary test, and 3 animals for toxicokinetics test, and the administration dose is 1, 3 and 10 mg/kg respectively. Each of the above groups is continuously administered twice a week for 2 weeks (administrating at Day 1, Day 5, Day 8, Day 12 and Day 15).
(§2) During the experiment, the cage condition monitoring, detailed clinical observations, determination of the food consumption, determination of body weight, measurement of the blood biochemical and hematology indicator, investigation of the gross anatomy, weighing of the organ, studying on toxicokinetic are performed on all the groups of the animals.
(§3) Original data during each time period is tabulated. The average values and standard deviations and/or group change are calculated for each assay endpoint based on the group and sex. For each endpoint, the administrated group will be compared with the control group in the following aspect. A logarithmic conversion is performed to the endpoint data as desired prior to the start of the specific analyses.

SD male rats = assay type: in vivo
Procedure: as §1, §2, §3

Work on `CC[C@H](C)[C@H](NC(=O)[C@H](CC(C)C)NC(=O)[C@H](Cc1c[nH]c2ccccc12)NC(=O)[C@H](CCC(N)=O)NC(=O)[C@@H](NC(=O)[C@H](Cc1ccccc1)NC(=O)[C@H](C)NC(=O)[C@H](CCCCNC(=O)COCCOCCNC(=O)COCCOCCNC(=O)CC[C@H](NC(=O)CCCCCCCCCCCCCCCCCCC(=O)O)C(=O)O)NC(=O)[C@H](CCC(N)=O)NC(=O)[C@H](C)NC(=O)[C@@H](NC(=O)[C@H](CCCCN)NC(=O)[C@H](CC(=O)O)NC(=O)[C@H](CC(C)C)NC(=O)C(C)(C)NC(=O)[C@@H](NC(=O)[C@H](CO)NC(=O)[C@H](Cc1ccc(O)cc1)NC(=O)[C@H](CC(=O)O)NC(=O)[C@H](CO)NC(=O)[C@@H](NC(=O)[C@H](Cc1ccccc1)NC(=O)[C@@H](NC(=O)CNC(=O)[C@H](CCC(=O)O)NC(=O)C(C)(C)NC(=O)[C@@H](N)Cc1ccc(O)cc1)[C@@H](C)O)[C@@H](C)O)[C@@H](C)CC)[C@@H](C)CC)C(C)C)C(=O)N[C@@H](C)C(=O)NCC(=O)NCC(=O)N1CCC[C@H]1C(=O)N[C@@H](CO)C(=O)N[C@@H](CO)C(=O)NCC(=O)N[C@@H](C)C(=O)N1CCC[C@H]1C(=O)N1CCC[C@H]1C(=O)N1CCC[C@H]1C(=O)N[C@@H](CO)C(N)=O` [Tirzepatide] yielded an AUC(0-inf) ([1]; iv) of 12800 ng·h/mL, an AUC(0-t) ([1]; iv) of 12700 ng·h/mL and a C0 ([1]; iv) of 1900 ng/mL. It also gave an MRT inf ([1]; iv) of 12 h, an MRT last ([1]; iv) of 11.4 h and a half-life ([1]; iv) of 10.5 h. For the same compound, the AUC(0-inf) ([1]; sc) was 19700 ng·h/mL, the AUC(0-t) ([1]; sc) was 19400 ng·h/mL and the Cmax ([1]; sc) was 871 ng/mL. For the same compound, the MRT inf ([1]; sc) was 15.3 h, the MRT last ([1]; sc) was 14.5 h and the Tmax ([1]; sc) was 6 h. The half-life ([1]; sc) was 9.21 h, the AUC(0-inf) [2] was 3.67 ± 1.19 µM·h and the AUC(0-t) [2] was 3.61 ± 1.2 µM·h. It also gave a Cmax [2] of 128 ± 42.8 nM, an MRT inf [2] of 20.3 ± 0.755 h and an MRT last [2] of 19 ± 0.265 h. The Tmax [2] was 7.33 ± 1.15 h, the half-life [2] was 11.4 ± 1.79 h and the AUC(0-inf) ([3]; iv, 12.5 nmol/kg) was 58500 ± 11900 ng·h/mL. For the same compound, the AUC(0-t) ([3]; iv, 12.5 nmol/kg) was 57600 ± 11800 ng·h/mL, the C0 ([3]; iv, 12.5 nmol/kg) was 1170 ± 160 ng/mL and the MRT inf ([3]; iv, 12.5 nmol/kg) was 74.3 ± 8.76 h. It also gave an MRT last ([3]; iv, 12.5 nmol/kg) of 68.3 ± 8.61 h, a half-life ([3]; iv, 12.5 nmol/kg) of 59.5 ± 5.22 h and an AUC(0-inf) ([3]; sc, 25 nmol/kg) of 150000 ± 39100 ng·h/mL. The AUC(0-t) ([3]; sc, 25 nmol/kg) was 148000 ± 38200 ng·h/mL, the Cmax ([3]; sc, 25 nmol/kg) was 1300 ± 300 ng/mL and the MRT inf ([3]; sc, 25 nmol/kg) was 105 ± 7.58 h. The MRT last ([3]; sc, 25 nmol/kg) was 99.6 ± 6.26 h, the Tmax ([3]; sc, 25 nmol/kg) was 22.7 ± 10.1 h and the half-life ([3]; sc, 25 nmol/kg) was 62.5 ± 6.07 h. For the same compound, the “heart rate recovery time” value [4] was greater than 120 h, the MTD ([5]; MTD for 2 weeks, twice a week) was 2.08 µmol/kg and the MTD ([5]; continuously administered twice a week for 2 weeks) was greater than 10 mg/kg. For the same compound, the “Toxicokinetic: Cmax and AUC versus dose” value (SD male rats; male SD rats, 1, 3, 10 mg/kg) was “increase nearly proportionally to the dose”, the “Toxicokinetic: accumulation” value (SD male rats; male SD rats, continuously administered twice a week for 2 weeks) was “no substantial accumulation” and the “Safety Window (based on dosage)” value (SD male rats; rat MTD for 2 weeks vs efficacy dose in db/db mice) was 416. For the same compound, the “Safety Window (based on exposure AUClast)” value (SD male rats; rat, in vivo) was 130 and the “dose at which decrease of the body weight is observed after the first administration” value (SD male rats; rat, in vivo) was no less than 3 mg/kg.

From patent US12589158B2 (priority 2022, dated 2026)
